Assay results taken from patent US20090203693A1, “THERAPEUTIC AGENT FOR LIVER FIBROSIS” (Eisai R & D Management Co., Ltd., priority 2006, published 2009).

Columns and labels:
[1] = biological target: T1, His6-DDR2 (cytoplasmic domain of human DDR2) (Homo sapiens, UniProt Q16832); test: Determination of DDR2 kinase inhibitory activity (His6-DDR2 tyrosine autophosphorylation, HTRF); type: biochemical; settings: cell free, ATP, room temperature 10 minutes, HTRF detection; read-out: IC50 (concentration of the test substance required for inhibiting His6-DDR2 kinase activity by 50%)
T1 construct: cytoplasmic domain of DDR2 having 6 histidines fused to the N-terminus thereof; made in house; host or cells: Sf9 insect cells (baculovirus, pFastBac-HT)
T1 sequence (Q16832 422-855 limits assumed): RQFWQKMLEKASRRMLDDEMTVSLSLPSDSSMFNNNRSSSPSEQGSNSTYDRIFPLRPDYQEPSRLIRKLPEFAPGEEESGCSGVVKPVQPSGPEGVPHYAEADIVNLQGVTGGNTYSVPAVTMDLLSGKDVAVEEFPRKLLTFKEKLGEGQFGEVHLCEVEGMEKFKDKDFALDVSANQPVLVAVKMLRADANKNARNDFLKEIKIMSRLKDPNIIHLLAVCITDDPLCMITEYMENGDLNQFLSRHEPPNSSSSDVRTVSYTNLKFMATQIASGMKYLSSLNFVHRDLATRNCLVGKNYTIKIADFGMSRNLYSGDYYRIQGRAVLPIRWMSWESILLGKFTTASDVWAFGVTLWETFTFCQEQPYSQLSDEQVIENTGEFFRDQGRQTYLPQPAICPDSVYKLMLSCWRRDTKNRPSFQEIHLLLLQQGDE
Excerpt: A DNA fragment of cytoplasmic domain of human DDR2 (SEQ ID NO: 1) was isolated by PCR method (Expand High Fidelity (purchased from Roche)) according to a conventional technique using human brain cDNA library (purchased from Clontech) as a template and SEQ ID NO:3: 5′-[…]-3′ and SEQ ID NO:4: 5′-[…]-3′ (purchased from JBioS) as primers. This DNA fragment was inserted into a baculovirus transplacement vector (pFastBac™-HT (purchased from Invitrogen)) to obtain a recombinant construct. Insect cells (Spodoptera frugiperda 9 (Sf9 cells)) were transfected with this recombinant construct, thereby preparing a DDR2 recombinant baculovirus solution. For preparation of a recombinant baculovirus, we referred to a standard textbook (Bac-to-Bac Baculovirus Expression System (Invitrogen)).
The above-described DDR2 recombinant Baculovirus solution (0.07 mL) was added to Sf9 cells (7×10^7 cells) suspended in 2.5% FBS-containing SF-900II medium (purchased from Invitrogen) and shake-cultured at 27° C. for 72 hours. Then, this DDR2 recombinant Baculovirus-infected cells were subjected to centrifugation at 1,600 rpm at 4° C. for 6 minutes and the supernatant was removed. The precipitated infected cells were suspended in 10 mL of ice-cold PBS and centrifuged at 1,600 rpm at 4° C. for 6 minutes to remove the supernatant. The precipitated infected cells were suspended in 5 mL of ice-cold lysis buffer (50 mM Tris-HCl (pH 8.5), 5 mM 2-mercaptoethanol, 100 mM KCl, 1 mM PMSA, 1% (v/v) NP40), and centrifuged at 10,000 rpm at 4° C. for 10 minutes to obtain the supernatant.
This supernatant was added to a Ni-NTA agarose column (1.5 mL (purchased from Qiagen)) equilibrated with 5 mL of buffer A (20 mM Tris-HCl (pH 8.5), 5 mM 2-mercaptoethanol, 500 mM KCl, 20 mM imidazole, 10% (v/v) glycerol). This column was sequentially washed with 10 mL of buffer A, 2 mL of buffer B (20 mM Tris-HCl (pH8.5), 5 mM 2-mercaptoethanol, 1 M KCl, 10% (v/v) glycerol) and 2 mL of buffer A. Subsequently, 4 mL of buffer C (20 mM Tris-HCl (pH 8.5), 5 mM 2-mercaptoethanol, 100 mM KCl, 100 mM imidazole, 10% (v/v) glycerol) was added to obtain an eluate. This eluate was placed in a dialysis membrane (purchased from Spectrum Medical Industries) and dialyzed against 1 L of dialysis buffer (20 mM Tris-HCl, 10% (v/v) glycerol, 1 mM dithiothreitol, 0.1 mM Na3VO4, 0.1 mM EGTA) at 4° C. overnight. After dialysis, a portion of the eluate was subjected to SDS-PAGE and an amount of the recombinant protein detected at a molecular weight of about 40 kDa (His6-DDR2 (cytoplasmic domain of DDR2 having 6 histidines fused to the N-terminus thereof)) by Coomassie brilliant blue staining was quantitated using BSA as a standard substance.
To each well of a 96-well black half plate (purchased from Corning, Product No: 3694), 20 ng of His6-DDR2, 35 μL of 25 mM Hepes solution (pH 7.4) containing 14 mM MgCl2 and a test substance dissolved in dimethylsulfoxide (at 100-fold dilution with 1% BSA; 5 μL) were added to a total amount of 40 μL. To this, […] of 50 μM ATP (purchased with Sigma) diluted with 25 mM Hepes solution was added and incubated at room temperature for 10 minutes. Thereafter, 10 μL of 50 mM EDTA (pH 8.0) (purchased from Wako Pure Chemical Industries) was added to terminate the kinase reaction.
Tyrosine-phosphorylated DDR2 was detected using homogeneous time resolved fluorescence (HTRF) technique (Analytical Biochemistry, 269, 94-104, 1999). Specifically, to each well of the reaction solutions mentioned above, 20 μL of 25 mM Hepes solution containing 1 M KF, 4.75 ng of europium cryptate-labeled anti-phosphorylated tyrosine antibody (Eu(K)-PT66) and 100 ng of XL665-labeled anti-His antibody (XL665-Anti-His) was added. This reaction solution was incubated at room temperature overnight. Thereafter, fluorescence intensities of each well at 665 nm and 620 nm were measured under irradiation at an excitation wavelength of 337 nm using Discovery HTRF microplate analyzer (from Packard). […]

[2] = test system: thioacetamide-induced hepatic fibrillization in Balb/cAnN female mice; test: Mouse models of thioacetamide-induced cirrhosis (Azan staining of liver sections); type: in vivo; settings: orally once daily at 1 or 3 mg/kg, thioacetamide i.p. twice a week for five weeks
Procedure: Thioacetamide (purchased from Tokyo Chemical Industry) was intraperitoneally administered at 150 mg/kg for the first week and 200 mg/kg for the next second to fifth weeks to Balb/cAnN female mice (purchased from Charles River Laboratories) twice a week. The test substance (Compound 3) was suspended in 0.5% methylcellulose aqueous solution and orally administered once daily at 1 or 3 mg/kg. Three days after the final thioacetamide administration, livers were removed from the mice and subjected to 10% neutral buffered formalin fixation followed by Azan staining (staining technique is described in “Medical Technology, supp., new technique for staining” (Ishiyaku Publisher, 1999)). The degree of fibrillization was examined by observation of the stained tissue sections. Experiments were conducted for a group without the administration of thioacetamide (6 examples), a group administered with thioacetamide but a test substance (3 examples), a group administered with Compound 3 at 1 mg/kg (6 examples) and a group administered with Compound 3 at 3 mg/kg (3 examples).

COc1cc2nccc(Oc3ccc(NC(=O)Nc4nccs4)cc3)c2cc1OC [Compound 3, N-(2-thiazole)-N′-(4-((6,7-dimethoxy-4-quinolinyl)oxy)phenyl)urea]
IC50 [1]: 180 pM | degree of hepatic fibrillization (observation of stained tissue sections) [2]: suppressed hepatic fibrillization in a dose-dependent manner
